{
  "source": "patent US20070082939A1",
  "about": "“Methods and compositions for the treatment of neuropathies and related disorders” (priority 2005, published 2007)",
  "key": {"[1]": {"tested_on": "acute inflammatory pain produced by injection of yeast extract into the rat paw", "conditions": "cited from earlier work"}, "[2]": {"tested_on": "Streptozotocin (STZ)-induced diabetes rat model of neuropathy", "experiment": "Streptozotocin (STZ)-induced diabetes rat model, paw pressure test", "assay_type": "in vivo, rats", "conditions": "60 minutes after dosing; for mechanical hyperalgesia: nociceptive threshold (paw pressure): STZ diabetic rats, oral, vs vehicle-treated diabetic rats, hydrochloride", "experimental": "Male Sprague Dawley rats Rj:SD (IOPS Han) weighing 218-260 g at the beginning of the experiment, were included in this study for the induction of diabetes. These were divided into vehicle control and streptozotocin treated groups. The rats were housed in a temperature (19.5-24.5° C.) and relative humidity (45-65%) controlled room with a 12-h light/dark cycle, with ad libitum access to filtered tap water and standard pelleted laboratory chow throughout the study.\nOn day 0, diabetes was induced by intraperitoneal injection of streptozotocin (STZ; 75 mg/kg) to the rats. On day 23, to confirm the presence of diabetes in the STZ-administered rats, hyperglycemia was measured using blood glucose strips. Animals with a blood sugar level lower than […] were not used in further investigations.\nAnimals found useful for inclusion in additional investigations were dosed orally with bicifadine at the indicated doses, and the nociceptive threshold tested sixty minutes later. The nociceptive threshold was evaluated using a mechanical nociceptive stimulus (paw pressure test). An increasing pressure was applied onto the hindpaw of the animal until the nociceptive response (vocalization or paw withdrawal) was reached. The pain threshold (grams of contact pressure) was measured in both hindpaws.\nResults are expressed as the nociceptive threshold (mean±SEM) in grams of contact pressure for each group, calculated from individual nociceptive thresholds (mean values of the nociceptive thresholds obtained for both hindpaws). Statistical significance between the bicifadine treated groups and the vehicle-treated diabetic group was determined by a […], using the residual variance after a one-way analysis of variance (P<0.05)."}, "[3]": {"tested_on": "spinal nerve ligation (Chung) model of neuropathic pain", "experiment": "Spinal nerve ligation (Chung) model, thermal stimulation (infrared radiant source)", "assay_type": "in vivo, rats", "conditions": "for effect on thermal hyperalgesia compared with morphine / thermal hyperalgesia: paw withdrawal latency, lesioned paw: lesioned paw; for effect on thermal hyperalgesia compared with morphine: morphine 128 mg/kg PO, nearly lethal dose; for thermal hyperalgesia: paw withdrawal latency, lesioned paw / response to application of heat in the non-lesioned paw: rats; for thermal hyperalgesia: paw withdrawal latency, lesioned paw: p.o. at the indicated doses 60 minutes before the test; for response to application of heat in the non-lesioned paw: p.o., non-lesioned paw (Panel B)", "experimental": "(§1) Tight ligature of spinal nerves in rats is associated with hyperalgesia, allodynia and spontaneous pain, and thereby provides an accepted model for peripheral neuropathic pain in humans. Male Sprague-Dawley rats Rj:SD (IOPS Han) weighing 218-260 g at the beginning of the procedure were anesthetized (sodium pentobarbital 40 mg/kg i.p.) and an incision at the L4-S2 level was performed to expose the left L5 and L6 spinal nerves, which were then tightly ligated (4-0 silk suture) distal to the dorsal root ganglion and prior to entrance into the sciatic nerve, as first described by Kim and Chung (Pain 50:355-363, 1992). The wound was then sutured, and the rats received an […]. injection of clamoxyl (100 mg/kg […].) and were allowed to recover. 4 weeks after surgery, when the chronic pain state was fully installed, rats were submitted consecutively to tactile and thermal stimulation of both the non-lesioned and the lesioned hindpaws.\nFor thermal stimulation, the apparatus (Model 7200, Ugo Basile, Italy) consists of individual acrylic plastic boxes (17×11×13 cm) placed upon an elevated glass floor. A rat was placed in the box and left free to habituate for 10 minutes. A mobile infrared radiant source (96±10 mW/cm^2) was then focused under the non-lesioned and lesioned hindpaws and the paw-withdrawal latency was automatically recorded. In order to prevent tissue damage the heat source was automatically turned off after 45 seconds.\n(§2) Behavioral testing was carried out 2 weeks after surgery. Prior to receiving drug treatment all animals were submitted to tactile stimulation and assigned to treatment groups matched on the basis of their pain response. 8 rats were studied per group, and the tests were performed blind.\n(§3) Bicifadine was evaluated at the indicated doses, administered p.o. 60 minutes before the test, and compared with a vehicle control group. Morphine (128 mg/kg p.o.), used as a reference substance, was administered under the same experimental conditions.\n(§4) Data were analyzed by comparing the responses of lesioned paws in the treatment groups with vehicle control group using paired and unpaired Student's t tests.\n(§5) In the instant example, another exemplary, substituted 1-aryl-3-azabicyclo[3.1.0]hexane was evaluated for its ability to alleviate symptoms associated with neuropathy in the spinal nerve ligation (Chung) model of neuropathic pain. In this study, a multiply aryl-subsituted compound as described above, 1-(3,4-dichlorophenyl)-3-azabicyclo[3.1.0]hexane was assayed according to the procedures described above in Example 1. The 1-(3,4-dichlorophenyl)-3-azabicyclo[3.1.0]hexane was administered to test animals at the indicated doses p.o. 60 minutes before the test, and compared with a vehicle control group. Data were analyzed by comparing the responses of lesioned paws in the treatment groups with vehicle control group using paired and unpaired Student's t tests, as described in Example 1."}, "[4]": {"tested_on": "nociceptive pain following dental surgery", "conditions": "humans; cited from earlier work"}, "[5]": {"tested_on": "spinal nerve ligation (Chung) model of neuropathic pain", "experiment": "Spinal nerve ligation (Chung) model, tactile stimulation with electronic Von Frey probe", "assay_type": "in vivo, rats", "conditions": "for effect on mechanical hyperalgesia compared with morphine / mechanical hyperalgesia: force required to induce paw withdrawal, lesioned paw: lesioned paw; for effect on mechanical hyperalgesia compared with morphine: morphine 128 mg/kg p.o., near lethal dose; for mechanical hyperalgesia: force required to induce paw withdrawal, lesioned paw / pain (pressure) threshold in the non-lesioned paw: rats; for mechanical hyperalgesia: force required to induce paw withdrawal, lesioned paw: p.o. at the indicated doses 60 minutes before the test; for pain (pressure) threshold in the non-lesioned paw: p.o., non-lesioned paw (Panel B)", "experimental": "as §1\nFor tactile stimulation, the animal was placed under an inverted acrylic plastic box (18×11.5×13 cm) on a grid floor. The tip of an electronic Von Frey probe (Bioseb, model 1610) was then applied with increasing force to the non-lesioned and lesioned hindpaws and the force inducing paw-withdrawal was automatically recorded. This procedure was carried out 3 times and the mean force per paw was calculated.\nas §2, §3, §4, §5"}, "[6]": {"conditions": "listed as Bicfifadine, hydrochloride"}, "[7]": {"conditions": "vs vehicle, listed as bicifadine HCl, hydrochloride"}, "[8]": {"conditions": "morphine 128 mg/kg p.o. (nearly lethal dose), vs vehicle"}},
  "note": "“Also recorded” adds a separate entry of the source. Where a name gives a salt, the structure may show the parent alone.",
  "data": [
    {"smiles": "Cc1ccc([C@]23CNC[C@H]2C3)cc1", "note": "(racemic) [bicifadine, (±)-1-(4-methylphenyl)-3-azabicyclo[3.1.0]hexane hydrochloride]", "values": [
      {"measurement": "activity in the Randall-Selitto test", "setting": "[1]", "result": "potent and active"},
      {"measurement": "nociceptive threshold (paw pressure)", "setting": "[2]; 12.5 and 25 mg/kg oral, vs vehicle treated diabetic animals", "result": "significant (P<0.05) increase"},
      {"measurement": "mechanical hyperalgesia: nociceptive threshold (paw pressure)", "setting": "[2]", "result": "reduces mechanical hyperalgesia; also recorded: effectively alleviates neuropathy symptoms (mechanical hyperalgesia)"},
      {"measurement": "mechanical hyperalgesia: nociceptive threshold (paw pressure)", "setting": "[2]; listed as Bicifadine", "result": "increased the amount of pressure an animal could withstand; also recorded: restore the amount of pressure tolerated in these diabetic rats to values approaching those obtained in control animals"},
      {"measurement": "paw withdrawal latency in response to a thermal stimulus, lesioned paw", "setting": "[3]; all doses tested (12.5-100 mg/kg PO), vs vehicle", "result": "significant increase"},
      {"measurement": "effect on thermal hyperalgesia compared with morphine", "setting": "[3]; hydrochloride", "result": "approximately equivalent"},
      {"measurement": "effect on thermal hyperalgesia compared with morphine", "setting": "[3]; [6]", "result": "as effective as a near lethal dose morphine"},
      {"measurement": "thermal hyperalgesia: paw withdrawal latency, lesioned paw", "setting": "[3]; vs vehicle, hydrochloride", "result": "effectively suppressed"},
      {"measurement": "thermal hyperalgesia: paw withdrawal latency, lesioned paw", "setting": "[3]; [7]", "result": "suppresses thermal hyperalgesia"},
      {"measurement": "response to application of heat in the non-lesioned paw", "setting": "[3]; hydrochloride", "result": "does not affect; also recorded: no effect"},
      {"measurement": "relief of pain following dental surgery compared with codeine and tramadol", "setting": "[4]", "result": "as effective as codeine and tramadol"},
      {"measurement": "force required to induce paw withdrawal, lesioned paw", "setting": "[5]; 50 mg/kg PO, 60 minutes before the test, vs vehicle treated lesioned paws", "result": "significant increase"},
      {"measurement": "effect on mechanical hyperalgesia compared with morphine", "setting": "[5]; hydrochloride", "result": "more potent than morphine"},
      {"measurement": "effect on mechanical hyperalgesia compared with morphine", "setting": "[5]; [6]", "result": "as effective as a near lethal dose morphine"},
      {"measurement": "mechanical hyperalgesia: force required to induce paw withdrawal, lesioned paw", "setting": "[5]; vs vehicle, hydrochloride", "result": "statistically significant increase; also recorded: effectively suppressed"},
      {"measurement": "mechanical hyperalgesia: force required to induce paw withdrawal, lesioned paw", "setting": "[5]; [7]", "result": "suppresses mechanical hyperalgesia"},
      {"measurement": "pain (pressure) threshold in the non-lesioned paw", "setting": "[5]; hydrochloride", "result": "does not affect; also recorded: no effect"}
    ]},
    {"smiles": "Clc1ccc(C23CNCC2C3)cc1Cl", "note": "(centres unmarked) [1-(3,4-dichlorophenyl)-3-azabicyclo[3.1.0]hexane]", "values": [
      {"measurement": "thermal hyperalgesia: paw withdrawal latency, lesioned paw", "setting": "[3]; vs vehicle", "result": "dose-dependently suppressed thermal hyperalgesia; also recorded: significant increase in paw withdrawal latency; also recorded: suppresses thermal hyperalgesia"},
      {"measurement": "response to application of heat in the non-lesioned paw", "setting": "[3]", "result": "not due to debilitation of the animal; also recorded: no effect"},
      {"measurement": "mechanical hyperalgesia: force required to induce paw withdrawal, lesioned paw", "setting": "[5]; vs vehicle", "result": "potently suppressed tactile allodynia; also recorded: significant increase in the force required to induce paw withdrawal; also recorded: suppresses mechanical hyperalgesia"},
      {"measurement": "pain (pressure) threshold in the non-lesioned paw", "setting": "[5]", "result": "not due to debilitation of the animal; also recorded: no effect"}
    ]},
    {"smiles": "CC(=O)Oc1ccccc1C(=O)O", "note": "[aspirin]", "values": [
      {"measurement": "activity in the Randall-Selitto test", "setting": "[1]", "result": "active"}
    ]},
    {"smiles": "COc1ccc2c3c1O[C@H]1[C@@H](O)C=C[C@H]4[C@@H](C2)N(C)CC[C@@]341", "note": "[codeine]", "values": [
      {"measurement": "activity in the Randall-Selitto test", "setting": "[1]", "result": "active"}
    ]},
    {"smiles": "CN1CC[C@]23c4c5ccc(O)c4O[C@H]2[C@@H](O)C=C[C@H]3[C@H]1C5", "note": "[morphine, reference compound]", "values": [
      {"measurement": "activity in the Randall-Selitto test", "setting": "[1]", "result": "active"},
      {"measurement": "threshold for nociceptive response, thermal stimulus, lesioned paw", "setting": "[3]; [8]", "result": "significant increase"},
      {"measurement": "threshold for nociceptive response, mechanical pressure, lesioned paw", "setting": "[5]; [8]", "result": "significant increase"}
    ]}
  ]
}
